Assay results published in US20210387966A1, “2-AMINO-N-HETEROARYL-NICOTINAMIDES AS NAV1.8 INHIBITORS” (Merck Sharp & Dohme Corp., priority 2018, published 2021).

molecular target: T1, human Nav1.8 channels (Homo sapiens, UniProt Q9Y5Y9); experiment: Nav1.8 Qube automated patch-clamp assay; type: cell-based; conditions: human Nav1.8 stably expressed in HEK 293 cells; whole-cell voltage clamp, room temperature; resting or inactivated state not specified; read-out: IC50 values (nM) for Examples in the Nav1.8 Qube Assay
T1 construct: expressed in transfected cells
Method: Compounds were tested on human Nav1.8 and Nav1.5 channels stably expressed in human embryo kidney (HEK) 293 cells. Sodium current measurements on Qube® were conducted as follows: automated 384-well patch-clamp assays on the Qube® platform (Sophion Biosciences) were used to measure the inhibition of sodium flow through human Nav1.8 and Nav1.5 channels. Whole-cell voltage-clamp recordings were performed in QChips® (Sophion Biosciences) at room temperature. Nav1.8 current measurements on Qube® were obtained as follows: Nav1.8 currents were elicited with a 10 second 1 Hertz (Hz) pulse train from a holding potential of −90 millivolts (mV), delivered to the cells once per minute in the control condition (DMSO only) and after compound addition. The 1 hertz pulse train stimulation consisted of ten test pulses to 10 millivolt (mV) for 20 milliseconds (ms), each of which was followed by a 980 millisecond repolarization to −67 millivolts. At the end of the 10 second pulse train stimulation, a second hyperpolarization step to −100 millivolt (mV) was used to recover Nav1.8 from fast inactivation. The peak currents elicited by the 1st and 10th test pulses were used to determine IC50 values for resting inhibition and inactivated state inhibition. Nav1.5 current measurements on Qube® were obtained as follows: Nav1.5 currents were elicited with a 20 second 3 Hertz pulse train in the control condition (DMSO only) and after compound addition. The pulse train consisted of sixty 20 millisecond test pulses to 0 millivolt from a holding potential of −80 millivolt (mV). The average peak currents elicited by the last 3 test pulses were used to determine IC50 values for Nav1.5 inhibition.
The following buffers were used for the Qube® recordings: External buffer for Nav1.8 Qube® recording: 150 NaCl, 2 CaCl2, 5 KCl, 1 Mg Cl2, 10 HEPES, 12 Dextrose; External buffer for Qube® Nav1.5 recording: 120 N-Methyl-D-Glucamine, 40 NaCl, 1 KCl, 2.7 CaCl2, 5 HEPES, 0.5 MgCl2: and Internal buffer for Qube® recording: 120 CsF, 30 CsCl, 10 EGTA, 5 HEPES, 5 NaF, 2 MgCl2.
For all Qube® experiments offline analysis was used to determine percent inhibition as a function of drug concentration. IC50 values were determined by fitting to the Hill equation.

T1 sequence (Q9Y5Y9 whole entry): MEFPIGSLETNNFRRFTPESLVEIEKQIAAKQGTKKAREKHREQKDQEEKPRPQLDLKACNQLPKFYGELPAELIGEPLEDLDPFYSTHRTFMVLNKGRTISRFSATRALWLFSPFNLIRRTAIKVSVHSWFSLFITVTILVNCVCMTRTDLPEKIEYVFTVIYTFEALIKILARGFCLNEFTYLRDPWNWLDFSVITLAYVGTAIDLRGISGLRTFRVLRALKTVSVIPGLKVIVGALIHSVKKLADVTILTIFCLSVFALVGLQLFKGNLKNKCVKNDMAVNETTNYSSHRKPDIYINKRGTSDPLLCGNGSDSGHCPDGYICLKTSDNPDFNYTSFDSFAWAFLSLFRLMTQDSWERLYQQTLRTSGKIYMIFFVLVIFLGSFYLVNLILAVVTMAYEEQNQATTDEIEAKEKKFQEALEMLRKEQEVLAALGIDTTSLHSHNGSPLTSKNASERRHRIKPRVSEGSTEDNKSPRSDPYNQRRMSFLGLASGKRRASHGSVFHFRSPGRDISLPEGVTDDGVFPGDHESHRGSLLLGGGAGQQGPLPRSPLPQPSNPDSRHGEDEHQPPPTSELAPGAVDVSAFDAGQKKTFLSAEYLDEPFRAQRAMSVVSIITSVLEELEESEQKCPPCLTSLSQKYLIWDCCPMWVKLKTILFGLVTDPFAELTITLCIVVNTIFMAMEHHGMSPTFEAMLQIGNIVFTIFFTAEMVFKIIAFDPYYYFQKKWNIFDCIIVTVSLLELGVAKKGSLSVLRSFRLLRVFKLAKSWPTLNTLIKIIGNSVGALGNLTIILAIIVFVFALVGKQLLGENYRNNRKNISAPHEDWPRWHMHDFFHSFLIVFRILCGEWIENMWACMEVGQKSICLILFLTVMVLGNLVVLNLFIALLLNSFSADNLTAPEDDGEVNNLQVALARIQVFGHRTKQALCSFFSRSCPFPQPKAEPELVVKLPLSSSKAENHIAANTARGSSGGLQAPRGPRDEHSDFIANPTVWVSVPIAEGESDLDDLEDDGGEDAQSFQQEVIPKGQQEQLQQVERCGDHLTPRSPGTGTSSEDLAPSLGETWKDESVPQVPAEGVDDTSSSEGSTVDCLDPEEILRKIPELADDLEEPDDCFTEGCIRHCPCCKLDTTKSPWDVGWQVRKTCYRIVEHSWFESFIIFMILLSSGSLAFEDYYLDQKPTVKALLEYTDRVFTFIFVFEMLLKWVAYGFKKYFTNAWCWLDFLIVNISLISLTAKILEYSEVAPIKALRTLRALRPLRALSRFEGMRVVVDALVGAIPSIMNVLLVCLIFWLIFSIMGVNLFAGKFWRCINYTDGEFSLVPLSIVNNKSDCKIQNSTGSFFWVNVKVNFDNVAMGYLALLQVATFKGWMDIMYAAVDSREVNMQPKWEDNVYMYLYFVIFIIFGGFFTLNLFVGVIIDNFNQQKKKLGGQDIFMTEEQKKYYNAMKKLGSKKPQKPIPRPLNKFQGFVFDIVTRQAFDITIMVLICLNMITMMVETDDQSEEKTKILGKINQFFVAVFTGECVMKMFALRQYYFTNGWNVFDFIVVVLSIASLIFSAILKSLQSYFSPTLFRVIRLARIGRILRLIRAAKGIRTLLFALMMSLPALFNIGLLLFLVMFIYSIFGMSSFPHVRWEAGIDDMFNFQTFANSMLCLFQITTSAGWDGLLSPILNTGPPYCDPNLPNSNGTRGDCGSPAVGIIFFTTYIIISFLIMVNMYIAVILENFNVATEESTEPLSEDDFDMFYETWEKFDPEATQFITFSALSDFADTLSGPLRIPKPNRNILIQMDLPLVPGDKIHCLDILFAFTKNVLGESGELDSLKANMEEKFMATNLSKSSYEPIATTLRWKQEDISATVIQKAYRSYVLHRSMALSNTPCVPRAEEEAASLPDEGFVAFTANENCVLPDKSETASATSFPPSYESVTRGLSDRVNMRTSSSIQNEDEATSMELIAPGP

Going from NS(=O)(=O)c1cc(NC(=O)c2cc(C(F)(F)F)cnc2N2CCC(n3cccn3)C2)ccn1 (stereo not drawn) [Example 94, 2-(3-pyrazol-1-ylpyrrolidin-1-yl)-N-(2-sulfamoyl-4-pyridyl)-5-(trifluoromethyl)pyridine-3-carboxamide] to CC1CCCN(c2ncc(C(F)(F)F)cc2C(=O)Nc2ccnc(S(N)(=O)=O)c2)C1 (single isomer, unassigned) [Example 57, (R or S)-2-(3-methylpiperidin-1-yl)-N-(2-sulfamoylpyridin-4-yl)-5-(trifluoromethyl)nicotinamide], the IC50 falls from 745 nM to 31 nM (24-fold).

First: CC12CCN(c3ncc(C(F)(F)F)cc3C(=O)Nc3ccnc(S(N)(=O)=O)c3)CC1C2(F)F (single isomer, unassigned) [Example 61, 2-[(1S,6S or 1R,6R)-7,7-difluoro-6-methyl-3-azabicyclo[4.1.0]heptan-3-yl]-N-(2-sulfamoyl-4-pyridyl)-5-(trifluoromethyl)pyridine-3-carboxamide]
Second: NS(=O)(=O)c1cc(NC(=O)c2cc(C(F)(F)F)cnc2N2CCC(F)(F)CC2)ccn1 [Example 175, 2-(4,4-difluoropiperidin-1-yl)-N-(2-sulfamoylpyridin-4-yl)-5-(trifluoromethyl) nicotinamide]
The IC50 of the first is 3.5-fold lower: 15 nM for the first, 53 nM for the second. The first is the more potent here.

Compared with CC1CC(F)(F)CCN1c1ncc(C(F)(F)F)cc1C(=O)Nc1ccnc(S(N)(=O)=O)c1 (single isomer, unassigned) [Example 74, (S or R)-2-(4,4-difluoro-2-methylpiperidin-1-yl)-N-(2-sulfamoylpyridin-4-yl)-5-(trifluoromethyl)nicotinamide], NS(=O)(=O)c1cc(NC(=O)c2cc(C(F)(F)F)cnc2N2CCCC3(C2)CC3(F)F)ccn1 (single isomer, unassigned) [Example 66, (R of S)-2-(1,1-difluoro-5-azaspiro[2.5]octan-5-yl)-N-(2-sulfamoylpyridin-4-yl)-5-(trifluoromethyl)nicotinamide] is 3.6-fold lower in IC50: 319 nM for the first, 88 nM for the second. The second is the more potent here.

First: N#Cc1cc(C(=O)Nc2ccnc(S(N)(=O)=O)c2)c(N2CCC(F)(F)CC2)nc1C(F)(F)F [Example 43, 5-cyano-2-(4,4-difluoropiperidin-1-yl)-N-(2-sulfamoylpyridin-4-yl)-6-(trifluoromethyl)nicotinamide]
Second: Cc1nc(N2CCCC(F)(F)CC2)c(C(=O)Nc2ccnc(S(N)(=O)=O)c2)cc1C#N [Example 25, 5-cyano-2-(4,4-difluoroazepan-1-yl)-6-methyl-N-(2-sulfamoylpyridin-4-yl)nicotinamide]
The IC50 of the first is 6.9-fold higher: 37 nM for the first, 5.4 nM for the second.

First: Cc1nc(N2CCC(F)(F)CC2)c(C(=O)Nc2cncc(S(N)(=O)=O)c2)c(C)c1Cl [Example 189, 5-chloro-2-(4,4-difluoro-1-piperidyl)-4,6-dimethyl-N-(5-sulfamoyl-3-pyridyl)pyridine-3-carboxamide]
Second: NS(=O)(=O)c1cncc(NC(=O)c2cc(Cl)cnc2N2CCC(F)(F)CC2)c1 [Example 10, 5-chloro-2-(4,4-difluoro-1-piperidyl)-N-(5-sulfamoyl-3-pyridyl)pyridine-3-carboxamide]
The IC50 of the first is 13-fold lower: 13 nM for the first, 174 nM for the second.

First: CC1(C)CN(c2ncc(C(F)(F)F)cc2C(=O)Nc2ccnc(S(N)(=O)=O)c2)CCCO1 [Example 107, 2-(2,2-dimethyl-1,4-oxazepan-4-yl)-N-(2-sulfamoyl-4-pyridyl)-5-(trifluoromethyl)pyridine-3-carboxamide]
Second: NS(=O)(=O)c1cc(NC(=O)c2cc(C(F)(F)F)cnc2N2CCCCCC2)ccn1 [Example 139, 2-(azepan-1-yl)-N-(2-sulfamoyl-4-pyridyl)-5-(trifluoromethyl)pyridine-3-carboxamide]
The IC50 of the first is 8.7-fold higher: 139 nM for the first, 16 nM for the second. The second is the more potent here.

Going from NS(=O)(=O)c1cc(NC(=O)c2ccc(C(F)F)nc2N2CCCC(F)(F)CC2)ccn1 [Example 174, 2-(4,4-difluoroazepan-1-yl)-6-(difluoromethyl)-N-(2-sulfamoylpyridin-4-yl)nicotinamide] to NS(=O)(=O)c1cc(NC(=O)c2cc(C3CC3)nnc2N2CCCC(F)(F)CC2)ccn1 [Example 39, 6-cyclopropyl-3-(4,4-difluoroazepan-1-yl)-N-(2-sulfamoylpyridin-4-yl)pyridazine-4-carboxamide], the IC50 rises from 4.1 nM to 441 nM (110-fold).

Compared with O=C(Nc1cc[nH]c(=O)c1)c1cc(C(F)(F)F)cnc1N1CCCCCC1 [Example 212, 2-(azepan-1-yl)-N-(2-oxo-1,2-dihydropyridin-4-yl)-5-(trifluoromethyl)nicotinamide], O=C(Nc1cc[nH]c(=O)c1)c1cc(C(F)(F)F)cnc1N1CCC2(CC1)CC2 [Example 208, N-(2-oxo-1,2-dihydropyridin-4-yl)-2-(6-azaspiro[2.5]octan-6-yl)-5-(trifluoromethyl)nicotinamide] is 2-fold lower in IC50: 570 nM for the first, 287 nM for the second. The second is the more potent here.

Going from C[C@@H]1CN(c2ncc(C(F)(F)F)cc2C(=O)Nc2ccnc(C#N)c2)C[C@H](C)C1(F)F [Example 150, N-(2-cyano-4-pyridyl)-2-[(3S,5R)-4,4-difluoro-3,5-dimethyl-1-piperidyl]-5-(tri-fluoromethyl)pyridine-3-carboxamide] to N#Cc1cc(NC(=O)c2cc(C(F)(F)F)cnc2N2C[C@H]3CC[C@H]3C2)ccn1 [Example 153, 2-[(1R,5S)-3-azabicyclo[3.2.0]heptan-3-yl]-N-(2-cyano-4-pyridyl)-5-(tri-fluoromethyl)pyridine-3-carboxamide], the IC50 rises from 77 nM to 310 nM (4-fold).

Cc1cc(Cl)nc(N2CCC(F)(F)CC2)c1C(=O)Nc1ccnc(S(N)(=O)=O)c1 [Example 170, 6-chloro-2-(4,4-difluoropiperidin-1-yl)-4-methyl-N-(2-sulfamoylpyridin-4-yl)nicotinamide] and NS(=O)(=O)c1cc(NC(=O)c2cc(C(F)(F)F)cnc2N2CCC(Cl)(Cl)CC2)ccn1 [Example 29, 2-(4,4-Dichloropiperidin-1-yl)-N-(2-sulfamoylpyridin-4-yl)-5-(trifluoromethyl)nicotinamide] are within 1.5-fold of each other in IC50: 24 nM for the first, 31 nM for the second.

COc1cc(NC(=O)c2c(N3CCCCCC3)nc(C)c(Cl)c2C)ccn1 [Example 187, 2-(azepan-1-yl)-5-chloro-N-(2-methoxy-4-pyridyl)-4,6-dimethyl-pyridine-3-carboxamide] and NC(=O)c1cc(NC(=O)c2cc(C(F)(F)F)cnc2N2CCCCCC2)ccn1 [Example 203, 4-(2-(azepan-1-yl)-5-(trifluoromethyl)nicotinamido)picolinamide] are within 1.5-fold of each other in IC50: 141 nM for the first, 139 nM for the second.

Going from NS(=O)(=O)c1cc(NC(=O)c2cc(C(F)(F)F)cnc2N2CCCC(c3cc(F)cc(F)c3)C2)ccn1 (stereo not drawn) [Example 81, 2-[3-(3,5-difluorophenyl)-1-piperidyl]-N-(2-sulfamoyl-4-pyridyl)-5-(trifluoromethyl)pyridine-3-carboxamide] to NS(=O)(=O)c1cc(NC(=O)c2cc(C(F)(F)F)cnc2N2CCCC(CO)C2)ccn1 (stereo not drawn) [Example 7, 2-(3-(hydroxymethyl)piperidin-1-yl)-N-(2-sulfamoylpyridin-4-yl)-5-(trifluoromethyl)nicotinamide], the IC50 rises from 39 nM to 2830 nM (73-fold). The first is the more potent here.

Compared with NS(=O)(=O)c1cc(NC(=O)c2cc(C(F)(F)F)cnc2N2C[C@H]3C[C@@H](C2)C3(F)F)ccn1 [Example 76, 2-((1R,5S)-6,6-difluoro-3-azabicyclo[3.1.1]heptan-3-yl)-N-(2-sulfamoylpyridin-4-yl)-5-(trifluoromethyl)nicotinamide], NS(=O)(=O)c1cc(NC(=O)c2cc(C(F)(F)F)cnc2N2C[C@H]3CC[C@@H](C2)C3(F)F)ccn1 [Example 63, 2-((1R,5S)-8,8-difluoro-3-azabicyclo[3.2.1]octan-3-yl)-N-(2-sulfamoylpyridin-4-yl)-5-(trifluoromethyl)nicotinamide] is 19-fold lower in IC50: 389 nM for the first, 20 nM for the second.

NS(=O)(=O)c1cc(NC(=O)c2cc(C(F)(F)F)cnc2N2CCCC3(C2)CC3(F)F)ccn1 (single isomer, unassigned) [Example 67, (S or R)-2-(1,1-difluoro-5-azaspiro[2.5]octan-5-yl)-N-(2-sulfamoylpyridin-4-yl)-5-(trifluoromethyl)nicotinamide] and NS(=O)(=O)c1cc(NC(=O)c2cc(C(F)(F)F)cnc2N2CCc3sccc3C2)ccn1 [Example 79, 2-(6,7-dihydro-4H-thieno[3.2-c]pyridin-5-yl)-N-(2-sulfamoyl-4-pyridyl)-5-(trifluoromethyl)pyridin-3-carboxamide] are within 1.5-fold of each other in IC50: 25 nM for the first, 21 nM for the second.

O=C(Nc1cncc(F)c1)c1cc(C(F)(F)F)cnc1N1CCCCCC1 [Example 186, 2-(azepan-1-yl)-N-(5-fluoropyridin-3-yl)-5-(trifluoromethyl)nicotinamide] and COc1cc(NC(=O)c2cc(C(F)(F)F)cnc2N2CCC3(CC2)CC3)ccn1 [Example 143, N-(2-methoxypyridin-4-yl)-2-(6-azaspiro[2.5]octan-6-yl)-5-(trifluoromethyl)-nicotinamide] are within 1.5-fold of each other in IC50: 1290 nM for the first, 1540 nM for the second.
